This is an account of results in patent US20050120403A1, “Inhibition of generative propagation in genetically modified herbicide resistant grasses” (Advanta Seeds B. V., priority 2000, published 2005).

Experiment [1] relates to Lolium perenne L. (perennial ryegrass) AtH1-expressing transformants. As to the kind of experiment: Relief of delayed heading by gibberellins (spraying, Long Day conditions). Type of experiment: in vivo. Conditions: for Mean Heading Time: transformant (T) plants, 30 mg/L in 5% ethanol + 0.01% Tween-20, sprayed six times over two weeks, days after the first spraying; for effect on heading as compared to non-treated controls: transformant plants, gibberellin 30 mg/L spray. The text has this: Primary transformants derived from Lolium perenne L. (perennial ryegrass) using pVDH636 were vernalized and then subjected to Long Day (LD) conditions in the greenhouse (17 hr light/7 hr dark). […] AtH1-expressing plants are generally very leafy (FIG. 10).
Four different gibberellin compounds, which differ in their florigenicity (Evans et al., 1990), were used to treat 34 clones per compound and their effect on heading time of transformants and controls was observed. Gibberellin was applied in solvent (5% ethanol supplemented with 0.01% Tween-20 surfactant) at 30 mg/L. It was applied by spraying six times with about 2-3 ml per plant over two weeks, started one week after the beginning of LD conditions. Mean heading time is shown in days after the first spraying. Non-transformant controls were treated with the solvent only.
Transformant (T) and non-transformant (NT) control plants (Table 5) were treated with the indicated gibberellin. […] Variation between transformants for their sensitivity to gibberellins could be great.

The subject of experiment [2] is Arabidopsis and tobacco overexpressing AtH1. Conditions: exogenous application; AtH1 overexpression in dicots; cited from earlier work.

Marks after values point to notes of the source that are not given here.

`C=C1C[C@]23C[C@@]1(O)CC[C@H]2[C@@]12CCC[C@@](C)(C(=O)O1)[C@H]2[C@@H]3C(=O)O` [GA20]: in experiment [1], the “Mean Heading Time” value was 37.8 ^b days and the “effect on heading as compared to non-treated controls” value is reported as “somewhat delayed heading”.
In the case of 16,17-dihydro-GA5 [diHGA5], the “Mean Heading Time” value in experiment [1] was 34.2 ^ab days.
For the compound `C=C1C[C@]23C[C@@]1(O)CC[C@H]2[C@@]12C=C[C@H](O)[C@@](C)(C(=O)O1)[C@H]2[C@@H]3C(=O)O` [GA3, gibberellic acid], in experiment [1], the “Mean Heading Time” value was 34.1 ^ab days. Moreover, the “reversal of inhibited flowering phenotype” value in experiment [2] is on record as “can be reversed”.
Regarding `C=C1C[C@]23C[C@@]1(O)CC[C@H]2[C@@]12CC=C[C@@](C)(C(=O)O1)[C@H]2[C@@H]3C(=O)O` [GA5], in experiment [1], the “Mean Heading Time” value is reported as 33.5 ^a days and the “effect on heading as compared to non-treated controls” value is “significantly stimulated heading”.
